Values quoted from earlier work, collected in patent US12686875B2, “Small molecules for increasing precise genome editing efficiency” (Max-Planck-Gesellschaft zur Förderung der Wissenschaften …, priority 2018, dated 2026).

How the values were obtained:
HEK293A cells = settings: cited from earlier work
rabbit embryos = settings: dsODN donors, from 4.4% without RS-1; cited from earlier work
hiPSCs = settings: cited from earlier work
U2OS cells = settings: dsODN donors, from 1.9% without RS-1; cited from earlier work
[1] = system: porcine fetal fibroblasts; settings: ssODN donors (Wang et al. 2016); cited from earlier work
mouse ESCs = settings: dsODN donors, from 17.7% without L755507 (Yu et al. 2015); cited from earlier work
[2] = system: precise genome editing (PGE); settings: SCR7 and L755507 added together with RS-1; cited from earlier work

O=C(Nc1ccc(Br)cc1)c1ccc(Br)c(S(=O)(=O)NCc2ccccc2)c1 [RS-1]
PGE (HEK293A cells; dsODN donors, from 3.5% without RS-1): 21%
PGE (rabbit embryos): 26.1%
increase of PGE (hiPSCs; hiPSCs, dsODN donors (Zhang et al., 2017)): not
PGE (U2OS cells): 2.4%
effect on PGE efficiency [1]: No effect

CCCCCCNC(=O)Nc1ccc(S(=O)(=O)Nc2ccc(CCNC[C@H](O)COc3ccc(O)cc3)cc2)cc1 [L755507]
effect on PGE (HEK293A cells): did not find significant stimulation
stimulation of PGE (hiPSCs; hiPSCs (Zhang et al. 2017)): did not find significant stimulation
PGE (hiPSCs; hiPSCs, ssODN, from 0.35% without L755507 (Yu et al. 2015)): 3.13%
PGE (mouse ESCs): 33.3%
effect on PGE when added together with RS-1, compared to RS-1 alone [2]: no additive effect
